According to a melting point compilation (Tetko et al.; mined from patent text by program, amines drawn as free bases though some values may be those of a salt):

Row | Structure (SMILES) | melting point [°C]
1 | COc1c(O)cc(O)c2c(=O)cc(-c3ccccc3)oc12 | 202 to 203
2 | O=P1(c2ccccc2)OCC2(CO1)COP(=O)(c1ccccc1)OC2 (centres undefined) | 264 to 265
3 | Cc1oc(-c2ccccc2)nc1COc1ccc(CCn2cc(CCC(=O)O)c(-c3ccccc3)n2)cc1 | 85 to 86
4 | CSc1nc2c(cnn2CC(O)c2ccccc2)c(=O)[nH]1 (centres undefined) | 208 to 209
5 | CCOC(=O)CC(NC(=O)C1CCCCC1)C(=O)c1ccco1 (centres undefined) | 58 to 61
6 | CCCc1ccc(C(=O)Nc2ccc(C(=O)c3ccccc3)cc2)cc1 | 119 to 122
7 | O=C(NCc1ccc(F)cc1)c1cccnc1Oc1ccc(F)cc1 | 136 to 138
8 | COC(=O)C(C)Oc1ccc(N(C)c2nnc3cc(Cl)ccc3n2)cc1 (centres undefined) | 120
9 | CNC(=O)[C@@H](NC(=O)[C@@H](CC(=O)O)n1ccc(-c2ccc(C#N)cc2)c1)C(C)(C)C | 138 to 140
10 | Cc1ccc2c(c1)C1(CCN(CCCC(=O)c3ccc(F)cc3)C1)CC2O (centres undefined) | 172 to 174
11 | CCCCc1oc2ccccc2c1C(=O)NCc1ccc2c(-c3ccc(C(C)(C)C)cc3)c(O)ccc2c1 | 195 to 197
12 | COc1cc2c(cc1OC)C(=O)C(c1ccc3c(c1)OCO3)CC2 (centres undefined) | 168 to 170
13 | Cc1oc2c(C)c(Cc3ccccc3)c(C3CC(=O)NC(=O)C3)cc2c1C | 138
14 | CC(=O)Oc1ccc(-c2cncnc2Cl)cc1OC(C)=O | 108
15 | Cc1cc(C)nc(NC(=O)NS(=O)(=O)c2c(Cl)c(C)nn2C)n1 | 191 to 194
16 | CC(C)Oc1cc(N2NC(C)(C)NC2=O)c(Cl)cc1Cl | 162 to 163
17 | CC1(C)CC(c2c[nH]c(-c3ccc(F)cc3)c2-c2ccncc2)CC(C)(C)N1 | 242 to 243
18 | c1ccc2c(NCCc3c[nH]cn3)nsc2c1 | 222 to 224
19 | CCOC(=O)Cc1cc(F)ccc1-c1ccccc1 | 60.5
20 | CC(C)OC(=O)c1cc(-n2c(=O)c3c(n(C)c2=O)OCC3)c(F)cc1Cl | 170 to 173
21 | CC#CCOc1ccc(S(=O)(=O)C(C(=O)NO)c2ccc(Br)cc2)cc1 (centres undefined) | 187
22 | CC1C(=O)N(c2ccc(F)cc2)C(=S)N1c1ccc(Oc2ccccc2)cc1 (centres undefined) | 150
23 | CCOc1c(C)cccc1-c1nc2ccc(C(=O)O)cc2c(=O)[nH]1 | 240 to 241
24 | NC(=O)c1ccccc1-c1cnn(CCN2CCCCC2)c1 | 168
25 | c1ccc(N2CCN(c3nsc4nc5ccccc5n34)CC2)nc1 | 176 to 178

Row | Structure (SMILES) | melting point [°C]
26 | CCN(CC)CCNS(=O)(=O)c1ccc(Nc2ncnc3ccc(Cl)cc23)cc1 | 110 to 113
27 | Cn1ccnc1Sc1ccc(Nc2c(C#N)cnc3cc(N4CCC(N5CCCC5)CC4)ccc23)cc1Cl | 125 to 130
28 | CN1CCC(OC2c3cccc(CCc4ccccc4)c3CCn3cc(-c4ccccc4)nc32)CC1 (centres undefined) | 67
29 | O=c1[nH]c2c(C(F)(F)F)cccc2c(=O)n1CCCN1CC=C(c2ccc(Cl)cc2)CC1 | 199 to 201
30 | O=C(CCCOc1ccccc1OCc1ccccc1)C(F)(F)F | 50 to 51
31 | CCOc1ccc(Nc2cc(C)nc3cn[nH]c23)cc1 | 217
32 | O=C1NCC=NN1c1cc(Cl)c(Cc2ccc(C(O)c3ccc(Cl)nc3)cc2)c(Br)c1 (centres undefined) | 167 to 169
33 | COc1cccc2c(NCc3ccccc3C)cc(C(=O)O)nc12 | 276 to 277
34 | COc1ccc(Cl)cc1Nc1c(C#N)cnc2cc(OC)c(OC)cc12 | 200 to 202
35 | Cc1c(-c2ccncc2)sc2c1C(=O)CCC2 | 129 to 130
36 | C[C@H](C(=O)O)[C@H](O)c1ccccc1 | 89 to 90
37 | CC(C)c1nc2c3c(c(C(=O)N(C)C)cc2n1C)CCC(c1ccccc1)O3 (centres undefined) | 179 to 180
38 | O=c1oc(-c2ccc(SC(F)(F)F)cc2)nc2cccc(Cl)c12 | 135 to 140
39 | O[C@H]1[C@H](O)CS[C@H]1n1cnc2c(Cl)ncnc21 | 192 to 193
40 | Nc1cnc(-c2cc(Cl)ccc2Cl)c(N)n1 | 159 to 160
41 | O=c1oc(-c2ccccc2Cl)cc(O)c1SCc1ccccc1 | 99 to 101
42 | Cn1ncc2c1-c1cc(Cl)ccc1N(C(=O)C1CC1)C2 | 146 to 150
43 | O=C(O)CCCCc1c[nH]c2ccc(F)cc12 | 86 to 92
44 | CS(=O)c1coc2cc(NS(C)(=O)=O)c(Oc3ccccc3)cc2c1=O (centres undefined) | > 250
45 | CC(=O)N1CCC(C(=O)c2nccn2CCc2ccccc2)CC1 | 113 to 116
46 | COc1ccc(Cc2nccc3cc(O)ccc23)cc1OC | 190 to 192
47 | CCc1cn2ccccc2c1S(=O)(=O)c1ccc(O)cc1 | 204
48 | CC(C)(C)c1cc(OCC(=O)O)cc(C(C)(C)C)c1O | 172 to 173
49 | CC(C)(C)C(=O)Nc1cc(Cl)ccn1 | 86 to 87
